How the values were obtained:
[1] = tested on: spontaneous motility of endothelin (ET-1)-treated mice; assay: Spontaneous motility of mice reduced by intracerebral endothelin (ET-1); type: in vivo
Excerpt: One of the effects of a vasoactive peptide and neuromodulator such as endothelin is the influence it exerts on animal behaviour in reducing the animals' motility and vestibular reactions.
In these tests, we were able to observe that the typical action of endothelin (ET-1) injected intracerebrally in mice at the dose of 1 pmol/mouse, which is to substantially reduce the animals' spontaneous motility, can be inhibited to a very significant extent by prior administration of carnitines and resveratrol, and, particularly, that the combination of these two types of substances is capable of acting synergistically, restoring the motility reduced by endothelin administration almost to normal values.
The values were observed, keeping 10 mice at a time placed in a container with a photocell and an automatic movement counter; the count was done by observing the mice for periods of 5 minutes 15 minutes after the endothelin (ET-1) injection.

[2] = tested on: pheochromocytoma cells (PC-12); assay: Survival of pheochromocytoma cells (PC-12) exposed to H2O2; type: cell-based; details: for survival rate: 0.1 mM H2O2 30 minutes
Description: Tests of survival of pheochromocytoma cells (PC-12) exposed to H2O2 and treated with L-carnitine or resveratrol or with the two products in combination
A culture of pheochromocytoma cells (PC-12) containing 3×10^5 N-cells/ml was exposed to 0.1 mM concentrations of H2O2 for 30 minutes. While the survival of the cells treated with H2O2 alone was approximately 45% after 24 hours, the survival of the cells treated with L-carnitine or with resveratrol was substantially greater, with survival rates of 55, 60 and 62%, respectively, for cells treated with L-carnitine, acetyl L-carnitine and propionyl L-carnitine at concentrations of 10^−8 M, and a survival rate of 69% for cells treated with resveratrol at the concentration of 10^−4 M.

[3] = tested on: sensory neuronal lesions induced by cisplatin; type: in vivo, mouse; details: cisplatin-treated mice; 10 animals per group
Description: In these tests, cisplatin was used as a neuronal toxic factor, capable, particularly, of producing lesions in the sensory neurones and thus of impairing proprioceptive perception. The tests evaluated the ability of carnitines, resveratrol and combinations of these substances to restore peripheral sensory perception in the mouse impaired by injection of cisplatin. This ability was assessed by evaluating the reaction to thermal pain induced by a heated water solution in which the animals' tails were dipped according to the tail-flick test, or using the rotating bar test (Apfel S.C., Lipton R.B., Ann. Neurol., 29, 87-90, 1991).
Cisplatin was administered subcutaneously at the dose of 10 mg/kg for eight consecutive days. Over the same period the mice received injections of 100 mg/kg of carnitines and 2.5 mg/kg of resveratrol or combinations of these products.
The values observed, in fact, were 13.5 seconds in the animals treated with acetyl L-carnitine plus resveratrol and 14.4 seconds in those treated with propionyl L-carnitine plus resveratrol.

[4] = carnitines 300 mg/kg intra-peritoneally for three days preceding and half an hour before ET-1 injection

With `CCC(=O)O[C@H](CC(=O)[O-])C[N+](C)(C)C` [propionyl L-carnitine] the motility reduction percentage [1, 4] was 60.3% and the survival rate ([2]; carnitine at 10^−8 M) was 62%.

With `C[N+](C)(C)C[C@H](O)CC(=O)[O-]` [L-carnitine] the motility reduction percentage [1, 4] was 69.6% and the survival rate ([2]; carnitine at 10^−8 M) was 55%.

With `Oc1ccc(/C=C/c2cc(O)cc(O)c2)cc1` [resveratrol, trans-3,4′,5-trihydroxy-stilbene] the motility reduction percentage ([1]; alone, resveratrol 2.5 mg/kg, ET-1 treated mice) was 60.4%, the survival rate ([2]; resveratrol at 10^−4 M) was 69% and the “increase in equilibrium time” value [3] was “significant increase”.

With `OO` [H2O2] the “survival of the cells” value ([2]; 0.1 mM H2O2 alone for 30 minutes, after 24 hours) was “approximately 45%”.

`CC(=O)O[C@H](CC(=O)[O-])C[N+](C)(C)C` [acetyl L-carnitine] was tested, and the motility reduction percentage [1, 4] was 65.5% and the survival rate ([2]; carnitine at 10^−8 M) was 60%.

In the case of `CC[C@H](C)[C@H](NC(=O)[C@H](CC(=O)O)NC(=O)[C@H](CC(C)C)NC(=O)[C@H](Cc1c[nH]cn1)NC(=O)[C@@H]1CSSC[C@H](N)C(=O)N[C@@H](CO)C(=O)N[C@H]2CSSC[C@H](NC(=O)[C@H](CCC(=O)O)NC(=O)[C@H](CCCCN)NC(=O)[C@H](CC(=O)O)NC(=O)[C@H](CCSC)NC(=O)[C@H](CC(C)C)NC(=O)[C@H](CO)NC(=O)[C@H](CO)NC2=O)C(=O)N[C@@H](C(C)C)C(=O)N[C@@H](Cc2ccc(O)cc2)C(=O)N[C@@H](Cc2ccccc2)C(=O)N1)C(=O)N[C@H](C(=O)N[C@@H](Cc1c[nH]c2ccccc12)C(=O)O)[C@@H](C)CC` [endothelin], the motility reduction percentage ([1]; endothelin alone, 1 pmol/mouse intracerebrally, count for 5 minutes, 15 minutes after injection) is reported as 85.5%.

Reference: patent US6515020B1, “Combination of carnitines and resveratrol for prevention or treatment of cerebral and ageing disorders” (Sigma-Tau HealthScience S.p.A., priority 1998, dated 2003)
